The values that follow come from US10519211B2, “Compounds as peptidic GLP1/glucagon/GIP receptor agonists” (SANOFI, priority 2016, dated 2019).

Type in all cases: physicochemical
The nature of data set [1]: Chemical stability assessment (UPLC-UV, relative purity loss). To be noted: 1 mg/ml, 25 mM acetate buffer pH 4.5 with m-cresol (buffer system A). The method in brief:
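Peptide at 1 mg/mL (purity-corrected) in 25 mM acetate pH 4.5 with methionine, m-cresol and glycerol, sterile-filtered, stored 28 days at 40° C. Purity measured by UPLC-UV as peptide peak area fraction at start and after storage; value is relative percent purity loss.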

A short description of data set [2]: Solubility assessment (UPLC-UV). To be noted: acetate buffer pH 4.5, 2.7 mg/ml m-cresol (buffer system A), target 10 mg/ml. The gist of the method: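 Peptides at 10 mg/mL (purity-corrected, by UPLC/MS) in 100 mM acetate buffer pH 4.5 with 2.7 mg/ml m-Cresol, gently agitated 1 hour, then centrifuged 15 min at 2500 RCF. Supernatant, diluted 1:10, quantified by UPLC-UV peak area against a reference peptide standard curve, extinction-coefficient corrected.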

Data set [3] in a line: Dynamic light scattering (DLS), hydrodynamic radius as surrogate for interaction parameter kD. The gist of the method: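 Rh and diffusion constant measured in triplicate at 1 and 5 mg/ml peptide in 25 mM acetate pH4.5 with methionine, m-cresol and glycerol, at 25°C, 830 nm, 158°. Rh5<Rh1 or D5>D1 taken as kD>0, indicating repulsive interactions.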
The nature of data set [4]: Thioflavin T (ThT) assay for physical stability (fibrillation). The note with it: 3 mg/ml, 100 mM acetate pH 4.5 with m-cresol, shaking at 37° C. The gist of the method: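 Peptide at 3 mg/ml with 100 μM ThT in 100 mM acetate pH 4.5 with m-cresol, stressed at 37° C by cycles of 10 s shaking at 960 rpm and 50 s rest. Fluorescence read every 20 minutes, eight replicates; lag time in hours.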

The structures appear in SMILES notation.

In the case of `CCCCCCCCCCCCCCCC(=O)N[C@@H](CCC(=O)N[C@@H](CCC(=O)NCCCC[C@H](NC(=O)[C@H](CC(C)C)NC(=O)[C@H](CCCCN)NC(=O)[C@H](CO)NC(=O)[C@H](CC(C)C)NC(=O)[C@H](CC(=O)O)NC(=O)[C@H](CO)NC(=O)[C@@H](NC(=O)[C@H](Cc1ccccc1)NC(=O)[C@@H](NC(=O)CNC(=O)[C@H](CCC(N)=O)NC(=O)C(C)(C)NC(=O)[C@@H](N)Cc1c[nH]cn1)[C@@H](C)O)[C@@H](C)O)C(=O)N[C@@H](CCC(=O)O)C(=O)N[C@@H](CCCCN)C(=O)N[C@@H](CCC(N)=O)C(=O)N[C@@H](CCCNC(=N)N)C(=O)N[C@@H](CCC(N)=O)C(=O)NC(C)(C)C(=O)N[C@@H](CCC(=O)O)C(=O)N[C@@H](Cc1ccccc1)C(=O)N[C@H](C(=O)N[C@@H](CCC(=O)O)C(=O)N[C@@H](Cc1c[nH]c2ccccc12)C(=O)N[C@@H](CC(C)C)C(=O)N[C@@H](CCCCN)C(=O)N[C@@H](C)C(=O)NCC(=O)NCC(=O)N1CCC[C@H]1C(=O)N1CCC[C@H]1C(=O)N[C@@H](CO)C(=O)NC(C)(C)C(=O)N[C@@H](CCCCN)C(=O)N1CCC[C@H]1C(=O)N1CCC[C@H]1C(=O)N1CCC[C@H]1C(=O)N[C@@H](CCCCN)C(N)=O)[C@@H](C)CC)C(=O)O)C(=O)O` [SEQ ID NO: 6, H-Aib-Q-G-T-F-T-S-D-L-S-K-L-K[gGlu-gGlu-Palm]-E-K-Q-R-Q-Aib-E-F-I-E-W-L-K-A-G-G-P-P-S-Aib-K-P-P-P-K-NH2], the “Chemical stability [relative purity loss 28 days 40° C.] (%) at pH 4.5” value in data set [1] is given as 6.9%. Also, the solubility (usually how much of the substance goes into solution per volume) at 1 h in data set [2] was more than 9600 µg/mL. Moreover, the “Delta Rh [nm] = Rh5 − Rh1” value in data set [3] (DLS buffer system A pH 4.5) is recorded as −0.5 nm. Moreover, in data set [3] (hydrodynamic radius, 1 mg/ml, DLS buffer system A pH 4.5, DLS method C, 25° C.), the “Rh1 [nm] c= 1 mg/ml” value stood at 2.3 nm. The “Rh5 [nm] c = 5 mg/ml” value in data set [3] (hydrodynamic radius, 5 mg/ml, DLS buffer system A pH 4.5, DLS method C, 25° C.) is reported as 1.8 nm. In addition, the “Lag time before increase” value in data set [4] is on record as more than 45 h.
